Here are results for one molecule from patent US9326978B2, “A3 adenosine receptor allosteric modulators” (The United States of America, Represented by the Secretary, …, priority 2006, dated 2016).

For test [1], the target named is hA3AR (Homo sapiens (Human), UniProt P0DMS8). Briefly: GTPγS binding at hA3AR. Format: biochemical.
Test [2] deals with human A3AR (Homo sapiens (Human), UniProt P0DMS8). As to the kind of experiment: Competitive binding assay to the human A3AR ([125I]I-AB-MECA). As for the experimental part: (§1) CHO (Chinese hamster ovary) cells expressing the recombinant human ARs (HEK-293 cells were used for the human A2AAR) were cultured in DMEM and F12 (1:1) supplemented with 10% fetal bovine serum, 100 units/ml penicillin, […] streptomycin and 2 μmol/ml glutamine. Cells were harvested by trypsinization. After homogenization and suspension, cells were centrifuged at 500 g for 10 min, and the pellet was re-suspended in 50 mM Tris.HCl buffer (pH 7.4) containing 10 mM MgCl2. The suspension was homogenized with an electric homogenizer for 10 sec, and was then re-centrifuged at 20,000 g for 20 min at 4° C. The resultant pellets were resuspended in buffer in the presence of 3 Units/mL adenosine deaminase, and the suspension was stored at −80° C. until the binding experiments. The protein concentration was measured using the Bradford assay.
Chain of human A3AR (P0DMS8 whole entry): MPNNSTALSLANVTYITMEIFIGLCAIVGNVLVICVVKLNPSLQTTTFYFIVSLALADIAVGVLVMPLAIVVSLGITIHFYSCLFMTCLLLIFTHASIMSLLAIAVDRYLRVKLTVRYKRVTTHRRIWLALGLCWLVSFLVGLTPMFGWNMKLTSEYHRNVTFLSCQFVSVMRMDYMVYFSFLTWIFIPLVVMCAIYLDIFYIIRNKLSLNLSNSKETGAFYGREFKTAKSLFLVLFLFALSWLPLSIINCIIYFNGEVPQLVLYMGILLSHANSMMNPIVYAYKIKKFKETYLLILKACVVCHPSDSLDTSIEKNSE
Each tube in the competitive binding assay contained 100 μl membrane suspension (20 μg protein), 50 μl [^125I]-AB-MECA (0.5 nM), and 50 μl of increasing concentrations of the test ligands in Tris.HCl buffer (50 mM, pH 8.0) containing 10 mM MgCl2, 1 mM EDTA. Nonspecific binding was determined using 10 μM of 5′-N-ethylcarboxamidoadenosine in the buffer. The mixtures were incubated at 25° C. for 60 min. Binding reactions were terminated by filtration through Whatman GF/B filters under reduced pressure using a MT-24 cell harvester (Brandell, Gaithersburgh, Md., USA). Filters were washed three times with 9 mL ice-cold buffer. Radioactivity was determined in a Beckman 5500B γ-counter.

The target of test [3] is human A1AR (Homo sapiens (Human), UniProt P30542). As to the kind of experiment: Binding assay to the human A1AR ([3H]R-PIA). Conditions: 1 h, 10 μM, CHO cells, read-out: hA1AR % displ. at 10 μM. The method, then: as §1
Chain of human A1AR (P30542 whole entry): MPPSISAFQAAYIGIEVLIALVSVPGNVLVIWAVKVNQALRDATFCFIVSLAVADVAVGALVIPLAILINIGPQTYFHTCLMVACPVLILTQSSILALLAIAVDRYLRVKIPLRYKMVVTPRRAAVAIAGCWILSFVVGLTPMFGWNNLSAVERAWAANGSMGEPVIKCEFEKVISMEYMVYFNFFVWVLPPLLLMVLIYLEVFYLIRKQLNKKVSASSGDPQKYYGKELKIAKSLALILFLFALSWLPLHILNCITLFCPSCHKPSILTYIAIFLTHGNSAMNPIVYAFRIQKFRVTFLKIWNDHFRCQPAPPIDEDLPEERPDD
For binding to the human A1AR, [^3H]R-PIA (2 nM) was incubated with membranes (40 μg/tube) from CHO cells stably expressing the human A1AR at 25° C. for 60 min in 50 mM Tris.HCl buffer (pH 7.4; MgCl2, 10 mM) in a total assay volume of 200 μL. Nonspecific binding was determined using 10 μM of N^6-cyclopentyladenosine. For human A2A AR binding, membranes (20 μg/tube) from HEK-293 cells stably expressing the human A2A AR were incubated with 15 nM [^3H]CGS21680 at 25° C. for 60 min in 200 μL of 50 mM Tris.HCl, pH 7.4, containing 10 mM MgCl2. N-5′-ethyluronamidoadenosine (10 μM) was used to define nonspecific binding. Reaction was terminated by filtration with GF/B filters.

In test [4] the target is hA2BAR (Homo sapiens (Human), UniProt P29275). Briefly: Effect on NECA-induced cyclic AMP accumulation at A2B receptor. Further: NECA (150 nM)-induced cyclic AMP accumulation. Type of test: cell-based. As to conditions: read-out: hA2BAR % inhib. at 10 μM.
Chain of hA2BAR (P29275 whole entry): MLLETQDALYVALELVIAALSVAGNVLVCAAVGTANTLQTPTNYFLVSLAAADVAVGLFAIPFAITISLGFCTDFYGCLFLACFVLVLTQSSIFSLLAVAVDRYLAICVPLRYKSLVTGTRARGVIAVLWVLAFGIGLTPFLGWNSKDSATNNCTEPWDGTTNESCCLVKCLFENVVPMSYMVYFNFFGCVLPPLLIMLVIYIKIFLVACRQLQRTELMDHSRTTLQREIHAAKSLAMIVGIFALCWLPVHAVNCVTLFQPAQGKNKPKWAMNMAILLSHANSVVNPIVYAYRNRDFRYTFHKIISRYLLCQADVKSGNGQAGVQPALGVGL

“And” between values parts separate entries of the source, which are not always exact repeats. Equal values may be shown once. “Also recorded” adds a separate entry of the source. Read-outs that look alike come from different tables or passages of the source. Bounds are passed on as bounds.

Chain of hA3AR (P0DMS8 whole entry): as the sequence (P0DMS8 whole entry) above

Take `Clc1ccc(Nc2nc3ccccc3c3[nH]c(C4CCCCC4)nc23)cc1Cl` [Compound 45, N-(3,4-Dichloro-phenyl)-2-cyclohexyl-1H-imidazo[4,5-c]quinolin-4-amine]: in test [1] (10 μM Cl-IB-MECA alone = 100%, Table 3), the “Enhancement of GTPγS binding (%) at hA3AR at 10 μM” value is 194 ± 11% and 177%. For the same molecule, the “Relative efficacy (%) at hA3AR at 10 μM (GTPγS binding) in absence of agonist” value in test [1] (absence of agonist, 10 μM Cl-IB-MECA alone = 100%) worked out at 6%. In test [1] (compared to maximal effect by 2-Cl-IB-MECA alone (control), Table 4), the “Enhancement of GTP[…]S binding (%) at hA3AR at 10 μM” value came out at 194 ± 11%. In addition, the “hA3AR % displ. at 10 μM” value in test [2] (10 μM, [125I]I-AB-MECA, CHO cells, Table 3) stood at 45%. For the same molecule, the inhibition at 10 µM in test [2] (1 h, 10 μM, [125I]I-AB-MECA (0.5 nM), CHO cells, Table 2, read-out: hA3AR % displ. at 10 μM) is 45%; in test [3] ([3H]R-PIA, Table 3) it was less than 10%; in test [3] ([3H]R-PIA, Table 4) it was less than 10%; in test [3] ([3H]R-PIA (2.0 nM), Table 2), -2%; in test [4], -5.6%. Moreover, the “affinity to orthosteric versus allosteric binding sites (selective affinity)” value in test [2] (orthosteric sites of A1, A2A, A2B, A3 receptors vs allosteric site of A3 adenosine receptor) was “selective affinity; also recorded: best separation between orthosteric and allosteric recognition”.
